Tests used:
[1] = test system: Adult male Sprauge-Dawley rats; assay: Extinction of conditioned avoidance response (CAE) in a shuttle box; type: in vivo; settings: 10 mg/kg and 30 mg/kg i.p. on the 2 days prior to testing and 1 hour before it, extinction tested during 14 days vs saline control
Procedure: Adult male Sprauge-Dawley rats (Charles River, Wilmington, MA), age 25 weeks and weighing 350-400 g, are separately housed in stainless steel cages with continuous access to food and water, a 12-hour light-dark cycle, and constant room temperature of 22° to 24 C. All testing took place approximately 6 hours into the dark component of the light-dark cycle and was conducted in a dimly lighted soundproof room using a standard shuttle box device ([…] Valley Electronics #146-04), a plexiglass chamber (50 x 20 x 20 cm) divided by a center barrier 7 cm in height. The conditioned stimulus consisted of a 10-second tone provided by a Sonlert mounted in the midpoint of the ceiling of the chamber. Floor current of 0.8 mA was delivered by a constant current shocker-scrambler ([…] Valley Electronics #133-33). The day before the initiation of training each animal was allowed to explore the experimental chamber for 10 minutes without any tone or shock. Training was conducted for 15 days following the day of experimental chamber exploration. Each animal received 20 trials per day on a 30-second variable interval schedule. No drug treatment was administered during the training period. Shock could be avoided by shuttling from one side of the center barrier to the other during the 10-second tone period. […] Animals which consistently remained on the center barrier were removed from the study. Automatic counters recorded the number of avoidance responses, escapes, and intertrial crossings, while a running time meter recorded the total shock duration for each animal. Animals not meeting the admittance criterion of correct avoidance rsponding on at least 85% of the trials for 4 out of the last 5 days of training were removed from the study. A total of 99 rats reaching the admittance criterion were tested for extinction of conditioned avoidance response (CAE) during 14 days. […] All solutions were prepared fresh and administered i.p. ([…]) on the 2 days prior to testing and then 1 hour before it. […] The tone was simply discontinued and the testing proceeded. Two-way analysis of variance of the CAE data yielded an overall significant difference in the rate of shuttle extinction between treatment groups.

Question: For `COC(=O)C1=CCCN(C)C1` [arecoline], which “basal learning (speed of habituation)” value (Male albino (BKW) mice; mouse, in vivo) is on record?
Answer: The value was “the time course of the basic 'learning' or habituation was unaffected”.

Question: For `C[C@H](CS)C(=O)N1CCC[C@H]1C(=O)O` [captopril], which “protective effects on memory of previously learned tasks (rate of shuttle extinction)” value (from here on “protective effects on memory”) [1] is on record?
Answer: The value was “possess protective effects on memory of previously learned tasks”.

Question: What does the source list for `COc1ccc([C@@H]2Sc3ccccc3N(CCN(C)C)C(=O)[C@@H]2OC(C)=O)cc1` [diltiazem]?
Answer: protective effects on memory of previously learned tasks (rate of shuttle extinction) [1]: possess protective effects on memory of previously learned tasks; antagonism of impairment in habituation caused by acute challenge with scopolamine (Male albino (BKW) mice; mice, scopolamine 0.25 mg/kg i.p. acute challenge (days 6 and 10 for diltiazem), arecoline 50 mg/kg/day i.p. infusion, hydergine 0.1 mg/kg p.o. daily, listed as Diltiazem): found to antagonize the impairment in habituation performance

Question: For `C[C@@H](CS)C(=O)N1CCC[C@H]1C(=O)O` [epicaptopril], which “protective effects on memory” value [1] is on record?
Answer: The value was “do not have protective effects against loss of memory of previously learned tasks”.

Question: Which “protective effects on memory” value [1] does the source give for `C[C@](N)(Cc1ccc(O)c(O)c1)C(=O)O` [methyldopa] here?
Answer: Its value is “do not have protective effects against loss of memory of previously learned tasks”.

Question: With `CN1[C@@H]2C[C@@H](OC(=O)[C@H](CO)c3ccccc3)C[C@H]1[C@@H]1O[C@@H]12` [scopolamine] as the compound, how does the “influence on habituation of the challenge agent, daily challenge” value (Male albino (BKW) mice; mouse, in vivo) read?
Answer: Its value is “The habituation was impaired throughout the time of scopolamine challenge”.

Question: What about the autonomic disturbance (Male albino (BKW) mice; mouse, in vivo, ip, 0.25 mg/kg) of the same compound?
Answer: Its autonomic disturbance is “did not cause autonomic disturbance”.

Question: What about the effect on vision (Male albino (BKW) mice; mouse, in vivo, ip, 0.25 mg/kg) of the same compound?
Answer: The effect on vision was “lack of effect on vision”.

Question: Which “protective effects on memory” value [1] does the source give for `C[C@H](CSC(=O)c1ccccc1)C(=O)N1C[C@@H](Sc2ccccc2)C[C@H]1C(=O)O` [zofenopril] here?
Answer: Its value is “possess protective effects on memory of previously learned tasks”.

Reference: patent EP0344995A2, “Method for inhibiting loss of cognitive functions employing a calcium channel blocker alone or in combination with an ace inhibitor” (E.R. SQUIBB & SONS, INC., priority 1988, dated 1989)
